Legend:
MT4 [1] = test: Anti-HIV-1 activity against LAI strain in MT-4 cells by the MTT method; format: functional, cell-based; conditions: Homo sapiens
[2] = Selectivity index is the ratio of 50% cytotoxic concentration to IC50 against LAI strain in MT-4 cells by the MTT method was determined; format: functional, MT4
MT4 [3] = test: Anti-HIV-1 activity against Y181C strain, in MT-4 cells by the MTT method; format: functional, cell-based; conditions: Homo sapiens
MT4 [4] = test: Anti-HIV-1 activity against K103N strain in MT-4 cells by the MTT method; format: functional, cell-based; conditions: Homo sapiens
MT4 [5] = test: Anti-HIV-1 activity against LAI strain in MT-4 cells.; format: functional, cell-based; conditions: Homo sapiens
MT4 [6] = test: Anti-HIV-1 activity against Y188L strain was determined in MT-4 cells by the MTT method; format: functional, cell-based; conditions: Homo sapiens
MT4 [7] = test: Anti-HIV-1 activity against K103N+Y181C strain was determined in MT-4 cells by the MTT method; format: functional, cell-based; conditions: Homo sapiens
MT4 [8] = test: Anti-HIV-1 activity against […] strain was determined in MT-4 cells by the MTT method; format: functional, cell-based; conditions: Homo sapiens
MT4 [9] = test: Anti-HIV-1 activity against K103N+[…] strain was determined in MT-4 cells by the MTT method; format: functional, cell-based; conditions: Homo sapiens

SMILES	IC50 (MT4 [1]) [nM]	SI [2]	IC50 (MT4 [3]) [nM]	IC50 (MT4 [4]) [nM]	IC50 (MT4 [5]) [nM]	IC50 (MT4 [6]) [nM]	IC50 (MT4 [7]) [nM]	IC50 (MT4 [8]) [nM]	IC50 (MT4 [9]) [nM]
CCOCn1c(Cc2cc(C)cc(C)c2)c(C(C)C)c(=O)[nH]c1=O	1	52000	180	40	–	–	–	–	–
CCc1c(Oc2cc(C)cc(C)c2)cc(=O)[nH]c1C	500	200	–	–	–	–	–	–	–
CCc1c(C)nc(O)c(I)c1Oc1cccc(C)c1	1.6	19900	51	32	–	–	–	–	–
O=c1[nH]c(=O)n(COCCO)c(Sc2ccccc2)c1I	–	–	–	–	3600	–	–	–	–
CCc1c(C)nc(O)c([N+](=O)[O-])c1Oc1cc(C)cc(C)c1	4	2500	158	100	–	–	–	–	–
CCc1c(C)[nH]c(=O)c(N(C)C)c1Cc1cc(C)cc(C)c1	8	12500	100	32	–	300	800	50	–
CCc1c(C)nc(O)c(I)c1Oc1ccccc1	1.6	63000	316	40	–	–	–	–	–
CC(C)Nc1cccnc1N1CCN(C(=O)c2cc3cc(NS(C)(=O)=O)ccc3[nH]2)CC1 [DELAVIRDINE]	–	–	–	–	–	–	> 10000	1900	> 10000
O=C1Nc2ccc(Cl)cc2[C@@](C#CC2CC2)(C(F)(F)F)O1 [EFAVIRENZ]	1	–	40	40	–	200	40	2	> 10000
CCOCn1c(Cc2ccccc2)c(C(C)C)c(=O)[nH]c1=O [EMIVIRINE]	8	12500	100	32	–	–	–	–	–
CCc1c(C)[nH]c(=O)c(I)c1Oc1cc(C)cc(C)c1	1.3	9000	20	3	–	45	40	6	20
CCc1c(C)nc(O)c(N(C)C)c1Oc1cc(C)cc(C)c1	4	25000	158	50	–	–	–	–	–

— ChEMBL document CHEMBL1136472, “3-iodo-4-phenoxypyridinones (IOPY's), a new family of highly potent non-nucleoside inhibitors of HIV-1 reverse transcriptase” (Bioorg Med Chem Lett, 2003)
